Measured values reported in patent publication US20250360142A1, “NOVEL ATP-SENSITIVE POTASSIUM CHANNEL POTENTIATORS, THEIR PREPARATION AND USE” (RHYTHM PHARMACEUTICALS, INC., priority 2022, published 2025).

Assays:
[1] = test system: INS-1E cells; experiment: Glucose stimulated insulin secretion assay (GSIS) in INS-1E cells; format: cell-based, rat; conditions: for inhibition at 10 µM: INS-1E cells
Method: (§1) INS-1E, rat pancreatic tumor (insulinoma) cells were used in the GSIS assay. INS-1E cells were thawed and incubated in culture medium (CM) (RPMI 1640+Glucose q.s., HEPES 25 mM, Na-Pyruvat 1 mM, 2-Mercaptoethanol 50 μM, Fetal Calf Serum; heat inactivated (FCS) 10%, Penicillin/Streptomycin 100 U/ml) at 37° C.; 5% CO2 in a humidified atmosphere. 96 welled plates are coated with Matrigel by incubating the plates with 1 ml pre-diluted 1:10 with cold basal medium with 100 μl/well at 37° C. for 1 hour. Matrigel is then removed and replaced with 100 μl CM. Cells are then seeded into the wells as 70 000 cells/well. CM is refreshed with 200 μl fresh CM on the third day. CM is refreshed again with 200 μl fresh CM on the sixth day. GSIS assay is performed on the seventh day and cells in wells are washed with PKrebs®BSA and incubated with 100 μL/well for 2 h. Secretion plates are placed in an incubator at 37° C., 5% C02 and saturated humidity for 60 min. Meanwhile, lysis solution is prepared by adding 1 tablet of protease inhibitor/10 mL TETG solution and kept at 4° C. until the end of the experiment. The other incubation buffers are prepared without adding pharmacological compounds, aliquoted and then placed in a water bath at 37° C. The samples are prepared including negative (βKrebs®B0=0 mM Glucose) and positive controls (PKrebs®B20=20 mM Glucose) and each compound to be tested is diluted in DMSO as having a series of final concentration including 10.00, 4.00, 1.60, 0.64, 0.26, 0.10, 0.04, 0.02 μM.
(§2) After 2 hours of starvation, glucose stimulation and treatments are initiated. KRB Buffer from cells is removed by pipetting. The solutions are homogenized and the cells are treated with 90 µL/well. 10 μl from 10-fold compound dilution is added to the assay plate (final 100 μl/well) according to the following layout for each compound to be tested.
(§3) Incubation time is 40 minutes. Plates are placed in an incubator at 37° C., 5% CO2 and saturated humidity. After incubation, 80 μL of supernatants are collected without disrupting the cell layer and stored at 4° C. or on ice until centrifugation. Remaining medium are removed from each well and 100 μL/well of cold lysis solution is added and incubated for minimum 2 minutes at room temperature. Cell lysis is observed under microscope and waited for maximum for 5 more minutes until the lysis is complete. Cell lysates are collected and all samples including supernatants are centrifuged at 700×g, 5 min at 4° C. 30 μL of each samples are transferred into aliquots for ELISA. ELISA is performed with HTRF Assay Kit comprising an insulin high range kit supplied by Cisbio/Perkin Elmer. 5 μl of each Insulin standard and 5 μl of either supernatant or lysate are transferred on HTRF plate. 40 μl/well of Anti-insulin—XL665 and 20 μl/well of Anti-insulin—EU are added to each well and the plate is read on HTRF compatible reader (fluorescence 620 nm & 665 nm).

[2] = test system: EndoC-βH1 Cell Line; experiment: GSIS assay in EndoC-βH1 cell line; format: cell-based
Method: as §1, §2, §3
GSIS experiments were also performed in other cell lines, e.g., EndoC-βH1, a canonical cell line for screening new therapeutic compounds.

IC50 [2] [µM] | SMILES | inhibition at 10 µM ([1]; Rattus norvegicus) [%] | other results
– | CC1(C)CC1NC1=NS(=O)(=O)c2cc(F)ccc2N1 (single isomer, unassigned) [Compound 7, (R*)-3-((2,2-dimethylcyclopropyl)amino)-7-fluoro-4H-benzo[e][1,2,4]thiadiazine 1,1-dioxide] | – | % inhibition of Insulin (Average Inhibition (%)) ([1]; INS-1E cell line): B (B is equal to 25-50% inhibition)
– | O=S1(=O)N=C(NC2CC23CC3)Nc2ccc(F)cc21 (single isomer, unassigned) [Compound 9, (S*)-7-fluoro-3-(spiro[2.2]pentan-1-ylamino)-4H-benzo[e][1,2,4]thiadiazine 1,1-dioxide] | – | % inhibition of Insulin (Average Inhibition (%)) ([1]; INS-1E cell line): B (B is equal to 25-50% inhibition)
0.5 to 1 | O=S1(=O)N=C(NC2CC23CCC3)Nc2cc(Cl)c(F)cc21 (single isomer, unassigned) [Compound 16, (S*)-6-chloro-7-fluoro-3-(spiro[2.3]hexan-1-ylamino)-4H-benzo[e][1,2,4]-thiadiazine 1,1-dioxide] | – | –
< 0.5 | O=S1(=O)N=C(NC2CC23CCC3)Nc2cc(Cl)c(F)cc21 (single isomer, unassigned) [Compound 17, (R*)-6-chloro-7-fluoro-3-(spiro[2.3]hexan-1-ylamino)-4H-benzo[e][1,2,4]-thiadiazine 1,1-dioxide] | – | –
0.5 to 1 | CC1(C)CC1NC1=NS(=O)(=O)c2cc(F)c(Cl)cc2N1 (single isomer, unassigned) [Compound 21, (S*)-6-chloro-3-((2,2-dimethylcyclopropyl)amino)-7-fluoro-4H benzo[e][1,2,4] thiadiazine 1,1-dioxide] | – | –
1 to 2 | CC1(C)CC1NC1=NS(=O)(=O)c2cc(F)c(Cl)cc2N1 (single isomer, unassigned) [Compound 22, (R*)-6-chloro-3-((2,2-dimethylcyclopropyl)amino)-7-fluoro-4H-benzo[e][1,2,4] thiadiazine 1,1-dioxide] | – | –
≥ 2 | O=S1(=O)N=C(NC2CC23CC3)Nc2cc(Cl)c(F)cc21 (single isomer, unassigned) [Compound 29, (S*)-6-chloro-7-fluoro-3-(spiro[2.2]pentan-1-ylamino)-4H-benzo[e][1,2,4]-thiadiazine 1,1-dioxide] | – | –
< 0.5 | O=S1(=O)N=C(NC2CC23CC3)Nc2cc(Cl)c(F)cc21 (single isomer, unassigned) [Compound 30, (R*)-6-chloro-7-fluoro-3-(spiro[2.2]pentan-1-ylamino)-4H-benzo[e][1,2,4]-thiadiazine 1,1-dioxide] | – | –
1 to 2 | C[C@H]1C[C@@H]1NC1=NS(=O)(=O)c2cc(F)c(Cl)cc2N1 (stereo in doubt) [Compound 26, 6-chloro-7-fluoro-3-(((1S*, 2S*)-2-methylcyclopropyl)amino)-4H-benzo[e][1,2,4]-thiadiazine 1,1-dioxide] | – | –
≥ 2 | C[C@@H]1C[C@H]1NC1=NS(=O)(=O)c2cc(F)c(Cl)cc2N1 (stereo in doubt) [Compound 27, 6-chloro-7-fluoro-3-(((1R*, 2R*)-2 methylcyclopropyl)amino)-4H-benzo[e][1,2,4]-thiadiazine 1,1-dioxide] | – | –
< 0.5 | CC1(NC2=NS(=O)(=O)c3cc(F)ccc3N2)CCC1 [Compound 2, 7-fluoro-3-((1-methylcyclobutyl)amino)-4H-benzo[e][1,2,4]thiadiazine 1,1-dioxide] | – | –
≥ 2 | O=S1(=O)N=C(NC23CC(F)(C2)C3)Nc2ccc(F)cc21 [Compound 3, 7-fluoro-3-((3-fluorobicyclo[1.1.1]pentan-1-yl)amino)-4H-benzo[e][1,2,4]thiadiazine 1,1-dioxide] | – | –
0.5 to 1 | O=S1(=O)N=C(NC23CCC(C2)C3)Nc2ccc(F)cc21 [Compound 4, 3-(bicyclo[2.1.1]hexan-1-ylamino)-7-fluoro-4H-benzo[e][1,2,4]thiadiazine 1,1-dioxide] | – | –
1 to 2 | CC1(C)CC1NC1=NS(=O)(=O)c2cc(F)ccc2N1 (stereo not shown) [Compound 5, 3-((2,2-dimethylcyclopropyl)amino)-7-fluoro-4H-benzo[e][1,2,4]thiadiazine 1,1-dioxide] | – | –
1 to 2 | O=S1(=O)N=C(NC2CC23CC3)Nc2ccc(F)cc21 (stereo not shown) [Compound 8, 7-fluoro-(spiro[2.2]pentan-1-ylamino)-4H-benzo[e][1,2,4]thiadiazine 1,1-dioxide] | – | –
– | O=S1(=O)N=C(NC2CC23CCC3)Nc2ccc(F)cc21 (stereo not shown) [Compound 11, 7-fluoro-3(spiro[2.3]hexan-1-ylamino)-4H-benzo[e][1,2,4]thiadiazine 1,1-dioxide] | – | % inhibition of Insulin (Average Inhibition (%)) ([1]; INS-1E cell line): B (B is equal to 25-50% inhibition); IC50 ([1]; Rattus norvegicus, INS-1E cell line): 0.5 to 1 µM
– | CCC1(NC2=NS(=O)(=O)c3cc(F)ccc3N2)CC1 [Compound 12, 3-((1-ethylcyclopropyl)amino)-7-fluoro-4H-benzo[e][1,2,4]thiadiazine 1,1-dioxide] | – | % inhibition of Insulin (Average Inhibition (%)) ([1]; INS-1E cell line): C (C is equal to 10-25% inhibition)
– | CC12CC(NC3=NS(=O)(=O)c4cc(F)c(Cl)cc4N3)(C1)C2 [Compound 18, 6-chloro-7-fluoro-3-((3-methylbicyclo[1.1.1]pentan-1-yl)amino)-4H-benzo[e][1,2,4]thiadiazine 1,1-dioxide] | – | % inhibition of Insulin (Average Inhibition (%)) ([1]; INS-1E cell line): C (C is equal to 10-25% inhibition)

IC50 [2] [µM] | SMILES | inhibition at 10 µM ([1]; Rattus norvegicus) [%] | other results
< 0.5 | CC1(C)CC1NC1=NS(=O)(=O)c2cc(F)c(Cl)cc2N1 (stereo not shown) [Compound 20, 6-chloro-3-((2,2-dimethylcyclopropyl)amino)-7-fluoro-4H-benzo[e][1,2,4] thiadiazine 1,1-dioxide] | – | –
< 0.5 | CC1(NC2=NS(=O)(=O)c3cc(F)c(Cl)cc3N2)CCC1 [Compound 24, 6-chloro-7-fluoro-3-((1-methylcyclobutyl)amino)-4H-benzo[e][1,2,4]thiadiazine 1,1-dioxide] | – | –
– | O=S1(=O)N=C(NC(CF)CF)Nc2ccc(F)cc21 [Compound 43] | 10 to 25 | –
– | CC1(NC2=NS(=O)(=O)c3cc(F)ccc3N2)CC1 [Compound 46] | ≥ 50 | –
– | O=S1(=O)N=C(NC2(CF)CC2)Nc2ccc(F)cc21 [Compound 47] | 10 to 25 | –
– | O=S1(=O)N=C(NC(CF)CF)Nc2ccc(Cl)cc21 [Compound 49] | ≥ 50 | –
– | CC1(NC2=NS(=O)(=O)c3cc(Cl)ccc3N2)CC1 [Compound 51] | 10 to 25 | –
– | O=S1(=O)N=C(NC2(CF)CC2)Nc2ccc(Cl)cc21 [Compound 52] | 10 to 25 | –
– | CC1(NC2=NS(=O)(=O)c3cc(F)c(Cl)cc3N2)CC1 [Compound 58] | ≥ 50 | –
– | O=S1(=O)N=C(NC2(CF)CC2)Nc2cc(Cl)c(F)cc21 [Compound 60] | ≥ 50 | –
– | O=S1(=O)N=C(NC23CC(C2)C3)Nc2ccc(Cl)cc21 [Compound 62] | 25 to 50 | –
– | CC(C)C1(NC2=NS(=O)(=O)c3cc(F)ccc3N2)CC1 [Compound 63] | ≥ 50 | –
– | CC(C)C1(NC2=NS(=O)(=O)c3cc(F)c(Cl)cc3N2)CC1 [Compound 64] | 25 to 50 | –
– | COCC1(NC2=NS(=O)(=O)c3cc(F)ccc3N2)CCC1 [Compound 65] | 25 to 50 | –
– | COCC1(NC2=NS(=O)(=O)c3cc(F)c(Cl)cc3N2)CCC1 [Compound 69] | ≥ 50 | –
– | O=S1(=O)N=C(NC2CCOC2)Nc2ccc(F)cc21 (stereo not shown) [Compound 71] | 10 to 25 | –
– | O=S1(=O)N=C(NC2CCOC2)Nc2ccc(Cl)cc21 (stereo not shown) [Compound 72] | 25 to 50 | –
– | O=S1(=O)N=C(NC2CCOC2)Nc2cc(Cl)c(F)cc21 (stereo not shown) [Compound 73] | ≥ 50 | –
